According to patent publication US5691348A, “Pyridyl imidazole derivatives and processes for the preparation thereof” (Daewoo Electronics Co., Ltd., priority 1994, dated 1997):

Tests used:
renal hypertensive rat [1] = assay: Blood pressure lowering effect in renal hypertension; type: in vivo, Sprague-Dawley rat; settings: Amount 3 mg; intravenous or oral (not specified)
Text: (§1) To induce renal hypertension, left renal artery of 4 week-old male Sprague-Dawley rat (from The Korea Research Institute of Chemical Technology) was ligated. The rat was anesthetized with ether and the surgical region on the left abdomen of the rat was shaved, disinfected, and then incised about 1 cm vertically. The renal artery near abdominal aorta was isolated carefully from surrounding tissues and veins, and then ligated completely with a suture (4/0 sterile surgical silk). The muscular strata and skin of the surgical area were sutured with a suture (4/0 sterile surgical silk). The surgical region was disinfected to prevent infection and thereafter, 200 to 250 mg/kg/day of cephazolin sodium was injected intramuscularly for 2 days. 6 to 8 days after the ligation, rats showing systolic pressure of more than 180 mmHg were selected for renal hypertension test. The blood pressure was determined by a tail-cuff method from the tail under unanesthetized condition (Gerold, M. et al., Arzneimittel-Forsch., 18, 1285(1968)).
(§2) Each of the compounds to be tested was administered intravenously or orally into the renal hypertensive rat. The blood pressure of the rat was determined by direct method (Chiu, A. T. et al., J. Pharmacol. Exp. Ther., 250, 867(1989)) using a catheter. The rat was anesthetized with ketamine hydrochloride (125 mg/kg, i.p.) and a catheter was filled with saline and inserted into a carotid artery and […]. The surgical area was sutured with a metal clip. The rat was relaxed at least 3 hours and the catheter in the carotid artery was adapted to an isotec pressure transducer to determine the blood pressure and heart rate with a physiograph (Linearcorder WR3310). After the blood pressure was stabilized, the test compound was administered intravenously or orally. For intravenous administration, the administered volume and washing volume were 1.0 ml/kg and 0.2 ml, respectively. The blood pressure and heart rate were measured in regular intervals up to 24 hours after the administration of the test compound and compared with those measured after the administration of the control compound Losartan.
(§3) The test compound was dissolved in 0.05N KOH for intravenous administration and suspended in Tween 80 for oral administration.

unanesthetized dogs [2] = assay: Blood pressure variation with time in unanesthetized dogs; type: in vivo, dog; settings: 1.0 mg, oral
Protocol: (§4) A number of dog was fed freely in a feeding room and those weighing 7 to 12 kg in good health were selected regardless of their gender.
(§5) The test dog was anesthetized with 30 mg/kg of pentobarbital sodium by intravenous injection and the left femoral artery and femoral vein were separated carefully. Silicone catheter, specially prepared and filled with saline treated with heparin (1,000 IU/ml), was cannulated into the blood vessels. After the surgery, the dog was constrained to measure the blood pressure continuously with Gould 2000 physiograph adapted to a Grass P23XL pressure transducer; and the heart rate was monitored with ECG/Biotacho amplifier. The dog was tested at least 2 days after the surgery.
(§6) 10 mg/kg of furosemide was injected intramuscularly 18 hours (in case of intravenous injection, 2 hours) before the beginning of the test (administration of the test compound) to improve the activity of renin in blood plasma. After the injection of furosemide, neither food nor water was provided. […] The blood pressure and heart rate were measured up to 8 hours after the administration of each test compound.

unanesthetized dogs [3] = assay: Maximum blood pressure lowering effect in unanesthetized dogs at different amounts; type: in vivo, dog
Protocol: as §4, §5
10 mg/kg of furosemide was injected intramuscularly 18 hours (in case of intravenous injection, 2 hours) before the beginning of the test (administration of the test compound) to improve the activity of renin in blood plasma. After the injection of furosemide, neither food nor water was provided. The test compound was suspended in Tween 80 and administered in an amount of 20 mg/kg orally. The blood pressure and heart rate were measured up to 8 hours after the administration of each test compound.
The maximum blood pressure lowering effect of the present compounds and the control compounds were determined in different amounts of administration using the same method as (i) and the results are given in Table 4.

[4] = Metabolite analysis: enzyme digestion test with rat liver microsome, HPLC; type: in vitro ADME; settings: 100 μM, 1 hour at 37° C.; for metabolite from the enzymatic digestion: rat liver microsome, HPLC (FIG. 1)
Protocol: Enzyme digestion test was executed in order to detect the metabolite of the test compound in vivo.
500 μg of NADP^+, 11 U of glucose-6-phosphate dehydrogenase and 200 μg of rat liver microsome were added to 1 ml of 0.1M phosphate buffer (pH 7.4), and to the resulting solution was added glucose-6-phosphate to a concentration of 10 mM. The resultant was incubated for 1 minute at 37° C. and added with each of the present compound (Example 3) and the Merck compound to a concentration of 100 μM. The mixture was incubated for 1 hour at 37° C., and then was added with 2 ml of dichloromethan to cease the reaction. The resultant was extracted with dichloromethan and the extract was evaporated to obtain a residue. The reside was analyzed using HPLC after dissolving in a mobile phase of the HPLC.
Column: Nucleosil phenyl column (0.46×25 cm, 5 μM)
Mobile phase: acetonitrile (50 mM, pH 5.0; 35:65, v/v)
FIG. 1 is a HPLC chart showing the result of the enzyme digestion test of the Merck compound and the compound of Example 3.

renal hypertensive rat [5] = assay: Blood pressure lowering effect with respect to dose (renal hypertensive rats); type: in vivo, Sprague-Dawley rat; settings: oral
Text: as §1, §2, §3
The present compounds, Losartan(Dup 753) and the Merck compound were administrated orally to rats in 10, 3 and 1 mg/kg under the same condition as in (ii) and the blood pressure lowering effect was determined.

angiotensin II receptor = assay: Angiotensin II receptor binding assay ([3H] angiotensin II); parameters: species or system rat (Sprague-Dawley adrenal cortex/medulla; Wistar liver); settings: 25° C., 60 minutes, test concentration not given
Protocol: 1. Angiotensin II receptor binding assay
In accordance with the procedure disclosed in Chiu, A. T. et al., Eur. J. Pharm., 157, 13(1981), a ligand marked with a radioisotope was reacted with an angiotensin II receptor and the reactant was filtered with a glass fiber to remove unreacted ligand. After washing the filter, the amount of the remaining isotope was measured to determine the binding activity of the ligand, as described below in detail.
Sprague-Dawley rats and Wistar rats of 250 to 350 g (from The Korea Research Institute of Chemical Technology) were tested and the test procedures were carried out at 4° C., unless otherwise specified. Adrenal gland was separated from the Sprague-Dawley rats (liver, in the case of Wistar rats) into cortex and medulla. The separated adrenal cortex and medulla were washed with a sucrose buffer solution (0.2M sucrose, 1 mM EDTA, 10 mM Tris, Ph 7.2) and homogenized in the same buffer solution by using a Teflon pestle and a Brinkmann homogenizer. The homogenates were centrifuged at 3,000× g for 10 minutes to remove precipitates and further centrifuged at 12,000× g for 13 minutes. The final supernatants were centrifuged at 102,000× g for 1 hour to obtain precipitates, which were washed with a Tris buffer solution (50 mM Tris, 5 mM MgCl2, pH 7.2) and recentrifuged at 102,000× g for 1 hour. The resulting precipitates were immediately processed at the following step or stored at -70° C.
The precipitates were suspended in a Tris buffer solution. The amount of protein was determined by using a Bio-Rad DC protein analyzing kit and the protein concentration was adjusted to the amounts of: 0.2 to 0.3 mg/ml (Sprague-Dawley rat: adrenal cortex), 1.5 to 2.0 mg/ml (Sprague-Dawley rat: adrenal medulla), and 1.5 to 2.0 mg/ml (Wistar rat: liver). To the suspension, bovine serum albumin(BSA) was added to a concentration of 0.25 wt % and the resultant was immediately processed at the following step or stored at -70° C.
50 μl (based on ligand) of [^3 H] angiotensin II (NEN, NET-446) and 10 μl of each of the test compounds with various concentrations were added to the buffer solution (50 mM Tris (pH 7.2), 5 mM MgCl2, 0.25% BSA) to adjust the final volume to be 0.5 ml. 100 μl of the receptor suspension was added thereto and the resulting solution was reacted for 60 minutes while stirring in a water bath at 25° C. 3 ml of cold buffer solution for analysis was added to cease the reaction. The isotope which was bound to the receptor was isolated from the resultant by using Brandel Cell Harvester System with Whatman glass fiber GF/C. After washing the filter, the radioactivity of the filter was determined by using a liquid scintillation counter. Binding inhibition(%) of the test compound was calculated as follows:
Binding Inhibition(%)=[{(T-B)-(S-B)}/(T-B)]×100
wherein T is the radioactivity (cpm) of the reaction product untreated with the test compound, S is the radioactivity (cpm) of the reaction product treated with the test compound, and B is the radioactivity (cpm) of blank test.

[6] = system: furosemide-administered dogs; assay: Duration of action in furosemide-administered dogs; type: in vivo, dog; settings: 0.3 mg oral
Protocol: as §4, §5, §6
The compound of Example 1 and the Merck compound were administered orally to the furosemide-administrated dogs as in test 3(i), and blood pressure lowering effect was measured with time.

renal hypertensive rats = assay: Duration of action in renal hypertensive rats; type: in vivo, Sprague-Dawley rat; settings: 3 mg/kg oral
Text: as §1, §2, §3
The compound of Example 1 and the Merck compound were tested using the hypertensive rats of test 2(i). 3 mg/kg of each compound was administered orally and blood pressure lowering effect with time was determined to measure the duration of action of the compounds.

## CCCCc1nc2cc(-c3cccc[n+]3[O-])c(C)nc2n1Cc1ccc(-c2ccccc2-c2nn[nH]n2)cc1 [Example 3, 2-Butyl-5-methyl-6-(1-oxy-pyridin-2-yl)-3-[2'-(1H-tetrazol-5-yl)-biphenyl-4-ylmethyl]-3H-imidazo[4,5-b]pyridine]
Renal hypertensive rat [1]
  Maximum Blood Pressure Lowering Effect: -50%
Unanesthetized dogs [2]; 0.5 hr
  Maximum Blood Pressure Lowering Effect: -16.2%
Unanesthetized dogs [2]; 1 hr
  Maximum Blood Pressure Lowering Effect: -23.8%
Unanesthetized dogs [2]; 2 hr
  Maximum Blood Pressure Lowering Effect: -30.0%
Unanesthetized dogs [2]; 4 hr
  Maximum Blood Pressure Lowering Effect: -32.7%
Unanesthetized dogs [2]; 6 hr
  Maximum Blood Pressure Lowering Effect: -35.5%
Unanesthetized dogs [2]; 8 hr
  Maximum Blood Pressure Lowering Effect: -33.0%
Unanesthetized dogs [3]; 0.1 mg/kg
  Maximum Blood Pressure Lowering Effect: -10%
Unanesthetized dogs [3]; 0.3 mg/kg
  Maximum Blood Pressure Lowering Effect: -11%
Unanesthetized dogs [3]; 1 mg/kg
  Maximum Blood Pressure Lowering Effect: -37%
[4]; in contrast with the Merck compound
  stability against the enzymatic digestion: good stability against the enzymatic digestion
[4]
  metabolite from the enzymatic digestion: has no metabolite from the enzymatic digestion
Renal hypertensive rat [5]; 1 mg/kg
  Maximum Blood Pressure Lowering Effect: -20%
Angiotensin II receptor
  Binding Inhibition: 86.4%

## CCc1nc2c(C)cc(C)nc2n1Cc1ccc(-c2ccccc2-c2nnn[nH]2)cc1 [Merck Compound, reference compound]
[6]; 0 min
  Maximum Blood Pressure Lowering Effect: 0.0%
[6]; 10 min
  Maximum Blood Pressure Lowering Effect: -5.0%
[6]; 20 min
  Maximum Blood Pressure Lowering Effect: -12.2%
[6]; 30 min
  Maximum Blood Pressure Lowering Effect: -14.4%
[6]; 60 min
  Maximum Blood Pressure Lowering Effect: -20.1%
[6]; 90 min
  Maximum Blood Pressure Lowering Effect: -24.4%
[6]; 120 min
  Maximum Blood Pressure Lowering Effect: -19.1%
[6]; 150 min
  Maximum Blood Pressure Lowering Effect: -24.2%
[6]; 180 min
  Maximum Blood Pressure Lowering Effect: -18.9%
[6]; 210 min
  Maximum Blood Pressure Lowering Effect: -17.0%
[6]; 240 min
  Maximum Blood Pressure Lowering Effect: -17.0%
[6]; 270 min
  Maximum Blood Pressure Lowering Effect: -13.4%
[6]; 300 min
  Maximum Blood Pressure Lowering Effect: -14.9%
[6]; 330 min
  Maximum Blood Pressure Lowering Effect: -15.6%
[6]; 360 min
  Maximum Blood Pressure Lowering Effect: -15.6%
[6]; 390 min
  Maximum Blood Pressure Lowering Effect: -11.4%
[6]; 420 min
  Maximum Blood Pressure Lowering Effect: -10.7%
[6]; 450 min
  Maximum Blood Pressure Lowering Effect: -11.4%
[6]; 480 min
  Maximum Blood Pressure Lowering Effect: -13.8%
[6]; Table 6, dogs
  time for which the maximum blood pressure lowering effect lasted after the administration: 2 to 3 h
Unanesthetized dogs [3]; 0.1 mg/kg
  Maximum Blood Pressure Lowering Effect: -20%
Unanesthetized dogs [3]; 0.3 mg/kg
  Maximum Blood Pressure Lowering Effect: -24%
[4]
  metabolite from the enzymatic digestion: has a metabolite
Renal hypertensive rat [5]; 3 mg/kg
  Maximum Blood Pressure Lowering Effect: -40%
Renal hypertensive rats; 0 min
  Maximum Blood Pressure Lowering Effect: 0%
Renal hypertensive rats; 10 min
  Maximum Blood Pressure Lowering Effect: -15%
Renal hypertensive rats; 20 min
  Maximum Blood Pressure Lowering Effect: -27%
Renal hypertensive rats; 30 min
  Maximum Blood Pressure Lowering Effect: -28%
Renal hypertensive rats; 60 min
  Maximum Blood Pressure Lowering Effect: -26%
Renal hypertensive rats; 90 min
  Maximum Blood Pressure Lowering Effect: -28%
Renal hypertensive rats; 120 min
  Maximum Blood Pressure Lowering Effect: -25%
Renal hypertensive rats; 240 min
  Maximum Blood Pressure Lowering Effect: -40%
Renal hypertensive rats; 360 min
  Maximum Blood Pressure Lowering Effect: -36%
Renal hypertensive rats; 1320 min
  Maximum Blood Pressure Lowering Effect: -35%
Renal hypertensive rats; 1440 min
  Maximum Blood Pressure Lowering Effect: -40%
